Measured values from patent US20050064021A1, “Medical dressings” (priority 2001, published 2005).

Tested on: cells
Experiment: cellular adherence to alginate, cell type not stated
Format: cell-based
Settings: lidocaine present with poloxamer

Structure (SMILES): CCN(CC)CC(=O)Nc1c(C)cccc1C [lidocaine]
- cellular adherence properties of alginate: reduce the cellular adherence properties of alginate, for example, still further
